{
  "source": "patent US20160324770A1",
  "about": "“INTRATHECAL ADMINISTRATION, PREFERABLY INTRAVENTRICULAR, OF MTOR INHIBITORS FOR THE THERAPY OF SOME NEURODEGENERATIVE, NEUROINFLAMMATORY AND NEURO-ONCOLOGIC DISEASES” (priority 2012, published 2016)",
  "key": {"[1]": {"test_system": "EAE (Experimental Autoimmune Encephalomyelite) mice", "test": "EAE mouse model, intraventricular pump from clinical score 1", "format": "in vivo, SJL/j mice", "from_the_text": "We carried out trials in mouse models exemplifying 3 families of neurological diseases: • EAE (Experimental Autoimmune Encephalomyelite, model of neuroinflammatory disease): SJL/j mice were immunized with two subcutaneous injections, performed 7 days apart, of proteolipid protein (PLP139-151), Freund's adjuvant and inactivated Mycobacterium tuberculosis. The disease severity was rated with a clinical score: 0=healthy; 1=tail weakness; 2=rear limb ataxia and/or paresis; 3=rear limb paralysis and/or front limb paresis; 4=tetraplegia; 5=state of agony or death • AD (Alzheimer's Disease, model of neurodegenerative disease): AD triple transgenic mouse (3xTg-AD) supplied by Jackson Laboratories (http://jaxmice.jax.org/strain/004807.html) Their memory was evaluated using the Passive Avoidance and Radial Maze tests; • TSC (Tuberous sclerosis complex, model of neuro-oncologic disease): TSC1 mouse with TSC1 gene within a flox cassette, supplied by Jackson Laboratories (http://jaxmice.jax.org/strain/005680.html)\n30 SJL/j mice were immunized and started developing the disease after 11 days. As they developed the neurological deficit and reached a score of 1, they were operated on and an Alzet 1004 pump containing everolimus or a vehicle was positioned. The purpose of this was to represent the usual clinical situation in which the patient goes to the doctor's on the occasion of the first attack. Generally speaking, a diagnosis is made and a high-dose steroid therapy is applied, with good regression of the symptoms, but in the majority of cases other attacks will occur and they will be followed by an increasingly less satisfactory regression, with a gradual increase in residual disability.\nIn our experimental set, the weight and clinical score of affected mice were monitored daily."}, "[2]": {"test_system": "p70-S6 kinase phosphorylation (measure of mTOR activity)", "test": "Western blot of p70S6K phosphorylation in brain, liver and spleen (verification of mTOR inhibition)", "format": "in vivo, mice", "experimental": "The frozen mouse tissues were homogenized in T-PER solution (Pierce) containing a cocktail of protease inhibitors (Sigma-Aldrich) and a cocktail of phosphatase inhibitors (Sigma-Aldrich). The homogenized samples were sonicated 3 times for 15 sec (amplitude of 10 microns) at 4° C. using an MSE soniprep 150 sonicator (Sanyo), and subsequently centrifuged at 4° C. for 30 minutes at 16000 g. The supernatant was recovered and the proteins quantified by means of a Bradford assay using BSA as the standard.\nFor the Western blot analysis, the proteins were separated by SDS-PAGE under reducing conditions according to the method of Laemmli. Subsequently, the proteins were transferred onto a PVDF membrane (Biorad), which was incubated with the following primary antibodies: anti-phospho-p70S6K (T^389), anti-phospho-p70S6K (S^371), anti-p70S6K (Cell Signaling) and anti-actin (Sigma-Aldrich). After being washed with TBS-Tween (50 mM Tris, pH 7.5, NaCl […] and 0.1% Tween 20), the membrane was incubated with one of the following secondary antibodies: anti-rabbit IgG conjugated to HRP (GE Healthcare) and anti-mouse IgG conjugated to HRP (GE Healthcare). The membrane was developed by means of ECL prime (GE Healthcare).\nVerification of mTOR inhibition. We analyzed the actual inhibition of mTOR by WB. mTOR is a kinase with multiple substrates, one of which is p70-S6 kinase. Phosphorylation of the latter is unanimously considered a measure of mTOR activity."}},
  "data": [
    {"smiles": "CO[C@H]1C[C@@H]2CC[C@@H](C)[C@@](O)(O2)C(=O)C(=O)N2CCCC[C@H]2C(=O)O[C@H]([C@H](C)C[C@@H]2CC[C@@H](OCCO)[C@H](OC)C2)CC(=O)[C@H](C)/C=C(\\C)[C@@H](O)[C@@H](OC)C(=O)[C@H](C)C[C@H](C)/C=C/C=C/C=C/1C", "note": "[everolimus]", "values": [
      {"measurement": "Immunosuppressive effect of intrathecal administration", "setting": "[1]; EAE mice", "result": "powerful local immunosuppressive effect"},
      {"measurement": "Severity of the following 2 attacks", "setting": "[1]; intraventricular pump implanted at score 1, vs controls", "result": "not much milder than in the controls"},
      {"measurement": "Severity of the first attack", "setting": "[1]; intraventricular pump implanted at score 1, vs vehicle", "result": "reduction in the severity of the first attack"},
      {"measurement": "Attacks after the third attack", "setting": "[1]; intraventricular pump, controls continued to have recurring attacks", "result": "no longer manifested attacks"},
      {"measurement": "Clinical score after the third attack", "setting": "[1]; score scale 0=healthy to 5=agony or death", "result": 0},
      {"measurement": "Body weight after the third attack", "setting": "[1]; treated EAE mice, FIG. 3", "result": "fully recovered"},
      {"measurement": "Inhibition of mTOR as shown by WB", "setting": "[2]; intrathecal treatment", "result": "local, but not systemic, inhibition of mTOR"},
      {"measurement": "Phosphorylation state of p70-S6 kinase in the brain vs controls", "setting": "[2]; selected dose (12.5 mg/Kg) intraventricular, brain, FIG. 1", "result": "less phosphorylated form than in the controls"},
      {"measurement": "Phosphorylation state of p70-S6 kinase in the spleen and liver", "setting": "[2]; selected dose (12.5 mg/Kg) intraventricular, spleen and liver, FIG. 1", "result": "normally phosphorylated"}
    ]}
  ]
}
